Laboratory results: US9187454B2, “Inhibitors of kinases and cancer stem cells, and methods of preparation and use thereof” (Boston Biomedical, Inc., priority 2013, dated 2015)

Key:
Assay type in all cases: cell-based
FaDu = test: Bulk cancer cell viability, CellTiter-Glo, FaDu; conditions: viability 72 hours after drug treatment
Method: (§1) Cancer cells were plated at 5000 cells per well in black-walled 96 well plates in 100 uL per well of complete media (DMEM, 10% FBS, 1% penicillin/streptomycin). Cells were treated with each of the compounds 24 hours after plating with a dose curve of the indicated compounds in triplicate wells. Cells were harvested 72 hours after drug treatment and viability was determined using CellTiter-Glo assay (Promega) as directed by the manufacturer.

FaDu CSC = test: Cancer stem cell sphere culture viability, CellTiter-Glo, FaDu CSC; conditions: CSC cultures, viability 72 hours after drug treatment
Method: (§2) Cancer Stem Cell (CSC) cultures were initiated from heterogenous cancer cell lines. Briefly, cancer cell cultures were trypsonized and collected in centrifuge tubes. Cells were then pelleted by centrifugation, media removed, and cells resuspended in phosphate buffered saline (PBS). Cells were then pelleted again, and the process repeated for a total of three PBS washes. Cells were subsequently resuspended in CSC media (DMEMF-12, 1×B27 supplement (Life Technologies), 0.4% BSA, 10 ng/ml EGF, 10 ng/ml FGF). Following resuspension, cells were passed through a 40 uM cell strainer to obtain a single cell suspension. Cells were then plated in 100 mm dishes coated with 0.5% Agar to prevent cell attachment. Cells were then allowed to grow for 5-7 days to allow CSC sphere formation.
(§3) CSC spheres that were a minimum of passage 2 were dissociated with Accutase and filtered through a 40 uM cell strainer before counting to remove any cell clumps. CSCs were then plated at 1000 cells per well in black-walled 96 well plates that have been coated in 0.5% Agar in 100 uL per well of CSC media. CSCs were then allowed to grow for 72 hours. CSC cultures were then treated with a dose curve of the indicated compounds in triplicate wells. CSC cultures were harvested 72 hours after drug treatment and viability determined using CellTiter-Glo assay (Promega) as directed by the manufacturer.

ACHN = test: Bulk cancer cell viability, CellTiter-Glo, ACHN; conditions: viability 72 hours after drug treatment
Method: as §1

A549 = test: Bulk cancer cell viability, CellTiter-Glo, A549; conditions: Homo sapiens, viability 72 hours after drug treatment
Method: as §1

A549 CSC = test: Cancer stem cell sphere culture viability, CellTiter-Glo, A549 CSC; conditions: Homo sapiens, CSC cultures, viability 72 hours after drug treatment
Method: as §2, §3

| SMILES | IC50 (FaDu; Homo sapiens, FaDu, 72 h) | IC50 (FaDu CSC; Homo sapiens, FaDu, 72 h) | also measured |
| --- | --- | --- | --- |
| CCN(CC)CCNC(=O)c1c(C)[nH]c(/C=C2\C(=O)Nc3cc(-c4csc(-c5ccccc5)n4)ccc32)c1C [Compound 233] | 5.02 µM | 0.66 µM |  |
| Cc1[nH]c(/C=C2\C(=O)Nc3cc(-c4csc(-c5ccccc5)n4)ccc32)c(C)c1C(=O)N1CCN(C)CC1 [Compound 234] | 6.29 µM |  |  |
| CCN(CC)CCNC(=O)c1c(C)[nH]c(/C=C2\C(=O)Nc3c2cccc3-c2csc(-c3ccccc3)n2)c1C [Compound 235] | 5.3 µM | 1.4 µM |  |
| Cc1[nH]c(/C=C2\C(=O)Nc3c2cccc3-c2csc(-c3ccccc3)n2)c(C)c1C(=O)N1CCN(C)CC1 [Compound 236] | 11.3 µM | 2.53 µM |  |
| CCN(CC)CCNC(=O)c1c(C)[nH]c(/C=C2\C(=O)Nc3cc(-c4ccc(-c5ccccc5)s4)ccc32)c1C [Compound 244] | 87.6 µM |  |  |
| CCN(CC)CCNC(=O)c1c(C)[nH]c(/C=C2\C(=O)Nc3ccc(-c4ncc(-c5ccccc5)o4)cc32)c1C [Compound 247] |  |  | IC50 (ACHN; Homo sapiens, ACHN, 72 h): 63.3 µM |
| CCN(CC)CCNC(=O)c1c(C)[nH]c(/C=C2\C(=O)Nc3ccc(-c4nnc(-c5ccccc5)s4)cc32)c1C [Compound 250] | 14.1 µM |  | IC50 (ACHN): 83.9 µM |
| CCN(CC)CCNC(=O)c1c(C)[nH]c(/C=C2\C(=O)Nc3ccc(-c4csc(-c5ccccc5)n4)nc32)c1C [Compound 261] | 1.51 µM | 0.65 µM | IC50 (A549): 1.12 µM; IC50 (ACHN; Homo sapiens, ACHN, 72 h): 1.75 µM |
| Cc1[nH]c(/C=C2\C(=O)Nc3ccc(-c4csc(-c5ccccc5)n4)nc32)c(C)c1C(=O)NCCN1CCCC1 [Compound 262] | 3.62 µM | 1.1 µM | IC50 (A549): 3.15 µM; IC50 (ACHN; Homo sapiens, ACHN, 72 h): 2.83 µM; IC50 (A549 CSC): 2.01 µM |
| CCN(CC)CCNC(=O)c1ccc(/C=C2\C(=O)Nc3ccc(-c4csc(-c5ccccc5)n4)cc32)[nH]c1=O [Compound 263] | 2.41 µM | 8.16 µM |  |
| CN1CCN(C(=O)c2ccc(/C=C3\C(=O)Nc4ccc(-c5csc(-c6ccccc6)n5)cc43)[nH]c2=O)CC1 [Compound 264] | 99.8 µM |  |  |
| O=C1Nc2ccc(-c3csc(-c4ccccc4)n3)cc2/C1=C/c1ccc(C(=O)NCCN2CCOCC2)c(=O)[nH]1 [Compound 265] | 62.7 µM |  |  |
| Cc1[nH]c(/C=C2\C(=O)Nc3cc(-c4csc(-c5ccccc5)n4)ccc32)c(C)c1C(=O)N1CCOCC1 [Compound 268] | 64.8 µM |  |  |
| CCN(CC)CCNC(=O)c1c(C)[nH]c(/C=C2\C(=O)Nc3ccc(C4CCN(C5CCN(C(C)=O)CC5)CC4)cc32)c1C [Compound 272] | 22.3 µM |  |  |
| CCN(CC)CCNC(=O)c1c(C)[nH]c(/C=C2\C(=O)Nc3ccc(-c4cnn(C5CCOCC5)c4)cc32)c1C [Compound 273] | 6.15 µM | 9.05 µM | IC50 (A549): 27.3 µM |
| CCN(CC)CCNC(=O)c1c(C)[nH]c(/C=C2\C(=O)Nc3ccc(C4=CS/C(=C\c5ccccc5)N4C)cc32)c1C [Compound 283] | 5.35 µM | 2.17 µM |  |
| CCN(CC)CCNC(=O)c1c(C)[nH]c(/C=C2\C(=O)Nc3ccc(-c4cn(-c5ccccc5)nc4C)cc32)c1C [Compound 287] |  |  | IC50 (FaDu): 5.79 µM; IC50 (FaDu CSC): 1.31 µM |
| CCN(CC)CCNC(=O)c1c(C)[nH]c(/C=C2\C(=O)Nc3ccc(-c4ccc(-c5cccnc5)s4)cc32)c1C [Compound 298] | 14.3 µM | 40.8 µM |  |
| CCN(CC)CCNC(=O)c1c(C)[nH]c(/C=C2\C(=O)Nc3ccc(-c4nnc(-c5ccccc5)s4)cc32)c1C [Compound 303] |  |  | IC50 (FaDu): 7.98 µM; IC50 (ACHN): 5.67 µM; IC50 (FaDu CSC): 12.6 µM |
| Cc1[nH]c(/C=C2\C(=O)Nc3ccc(-c4csc(-c5ccncc5)n4)cc32)c(C)c1CCC(=O)O [Compound 348] | 64.4 µM |  |  |
| O=C1Nc2ccc(-c3csc(-c4ccncc4)n3)cc2/C1=C/c1cc2ccccc2[nH]1 [Compound 352] | 67.8 µM |  |  |
| Cc1cc(C(=O)NCCO)[nH]c1/C=C1\C(=O)Nc2ccc(-c3csc(-c4ccccc4)n3)cc21 [Compound 370] | 56 µM |  |  |
